Data from US6875425B2, “Skin lightening agents, compositions and methods” (Unilever Home & Personal Care USA, priority 2002, dated 2005).

Tested on: mushroom tyrosinase
Test: Mushroom Tyrosinase Assay
Assay type: biochemical
Conditions: for % of Control (Melanin Synthesis): L-DOPA substrate, slope of 475-nm absorbency vs. ethanol control
Experimental: Mushroom tyrosinase inhibition is indicative of reduction in melanin synthesis, thereby showing skin lightening effect. […] Following an initial measurement of background absorbency at 475-nm, 20 microliters of mushroom tyrosinase (Sigma T-7755; 6050 units/ml) was added and incubated at room temperature. Absorbency is read at 475-nm over the following time points: 0, 2, 4, and 6.5 minutes. The data is plotted as 475-nm absorbency vs. time (minutes) and the slope of the line is calculated (ΔAbs 475nm/min). Values are expressed as the percentage of the respective untreated ethanol control reaction. [formula]

For `Oc1cccc(O)c1` [Resorcinol], the “% of Control (Melanin Synthesis)” value (0.1 uM compound) was 97 % of Control, the “% of Control (Melanin Synthesis)” value (1 uM compound) was 98 % of Control and the “% of Control (Melanin Synthesis)” value (10 uM compound) was 98 % of Control. The “% of Control (Melanin Synthesis)” value (100 uM compound) was 100 % of Control and the “activity in the mushroom tyrosinase assay (in words)” value (summary of Table 8) was “does not display activity”.

For `CCc1ccc(O)cc1O` [4-Ethyl Resorcinol], the “% of Control (Melanin Synthesis)” value (0.1 uM compound) was 73 % of Control, the “% of Control (Melanin Synthesis)” value (1 uM compound) was 46 % of Control and the “% of Control (Melanin Synthesis)” value (10 uM compound) was 31 % of Control. For the same molecule, the “% of Control (Melanin Synthesis)” value (100 uM compound) was 21 % of Control.

For `Oc1ccc(C2SCCCS2)c(O)c1` [1,3-di-Thiane Resorcinol], the “% of Control (Melanin Synthesis)” value (0.1 uM compound) was 87 % of Control, the “% of Control (Melanin Synthesis)” value (1 uM compound) was 57 % of Control and the “% of Control (Melanin Synthesis)” value (10 uM compound) was 48 % of Control. The “% of Control (Melanin Synthesis)” value (100 uM compound) was 47 % of Control.
